Reference: patent publication US4622417A, “L-aminodicarboxylic-(O-cycloalkyl)-L-aminocarboxylate alkyl ester sweeteners” (General Foods Corporation, priority 1984, dated 1986)
Peptide text beside a SMILES is read from it. * marks the point of attachment. tBu = CC(C)(C)*

Key:
[1] = system: panel of tasters; test: Sensory evaluation of sweetness: taste panel matches aqueous solutions of the compound to sucrose standard solutions (sucrose equivalency); type: in vivo; details: for Sucrose Equivalent: aqueous solution
Source text: A taste procedure for determination of sweetness merely involves the determination of sucrose equivalency. Sucrose equivalence for sweeteners are readily determined. The amount of a sweetener that is equivalent to a given weight percent sucrose can be determined by having a panel of tasters taste solutions of a sweetener at known concentrations and match its sweetness to standard solutions of sucrose. The following sensory evaluations were obtained by a panel of experts using known weight percent aqueous solutions of the above compound matched to sucrose standard solutions as previously described.

[2] = as reported in the literature; cited from earlier work
[3] = 0.005% concentration of compound
[4] = 0.01% concentration of compound
[5] = 0.025% concentration of compound
[6] = 0.05% concentration of compound
[7] = 0.02% concentration of compound
[8] = 0.0025% concentration of compound
[9] = 0.04% concentration of compound

Row | Compound | Sweetness ratio (Compound:Sucrose) [1, 3] | Sucrose Equivalent [1, 3] | Sweetness ratio (Compound:Sucrose) [1, 4] | Sucrose Equivalent [1, 4] | Sweetness ratio (Compound:Sucrose) [1, 5] | Sucrose Equivalent [1, 5] | further results
1 | COC(=O)[C@H](COC1CC2CCC1(C)C2(C)C)NC(=O)[C@@H](N)CC(=O)O (stereo partly drawn) [Example 11, α-L-Aspartyl-O-1-bornyl-L-serine methyl ester] | 200 | 1% | 250 | 2.5% | 180 | 4.5% | 
2 | COC(=O)[C@H](COC1CCCC1(C)C)NC(=O)[C@@H](N)CC(=O)O (stereo partly drawn) [2,2-dimethylcyclopentyl, α-L-aspartyl-O-(2,2-dimethylcyclopentyl)-L-serine methyl ester] | 600 | 3% | 530 | 5.3% | 360 | 9% | 
3 | COC(=O)[C@H](COC1CCCC1C)NC(=O)[C@@H](N)CC(=O)O (stereo partly drawn) [trans-2-methylcyclopentyl, L-aspartyl-[O-(2-methylcyclopentyl)]-L-serine methyl ester] |  |  | 300 | 3% | 212 | 5.3% | 
4 | COC(=O)[C@H](COCCC12C=CC(CC1)C2)NC(=O)[C@@H](N)CC(=O)O (stereo partly drawn) [2-(4-norbornenyl)ethyl, α-L-Aspartyl-O-[2-(4-norbornenyl)ethyl]-L-serine methyl ester] |  |  |  |  |  |  | Sweetness ratio (Compound:Sucrose) [1, 6]: 117; Sucrose Equivalent [1, 6]: 5.8%
5 | COC(=O)[C@H](COC1(C)CCC1)NC(=O)[C@@H](N)CC(=O)O [Example 3, L-aspartyl-O-(1-methylcyclobutyl)-L-serine methyl ester] |  |  | 200 | 2% |  |  | Sweetness ratio (Compound:Sucrose) [1, 6]: 160; Sucrose Equivalent [1, 6]: 8%
6 | CCC1(OC[C@H](NC(=O)[C@@H](N)CC(=O)O)C(=O)OC)CCCC1 [Example 5, L-aspartyl-O-(1-ethylcyclopentyl)-L-serine methyl ester] | 400 | 2% | 400 | 4% |  |  | Sweetness ratio (Compound:Sucrose) [1, 7]: 300; Sucrose Equivalent [1, 7]: 6%
7 | COC(=O)[C@H](COC1CCCCC1C)NC(=O)[C@@H](N)CC(=O)O (stereo partly drawn) [2-cis-methylcyclohexyl, α-L-aspartyl-O-(2-methylcyclohexyl)-L-serine methyl ester] | 360 | 1.8% | 320 | 3.2% | 240 | 6% | 
8 | COC(=O)[C@H](COC1(C)CCCCC1)NC(=O)[C@@H](N)CC(=O)O [Example 2, L-aspartyl-O-(1-methylcyclohexyl)-L-serine methyl ester] | 400 | 2% | 450 | 4.5% | 340 | 8.5% | 
9 | COC(=O)[C@H](COC1C(C)(C)CCC1(C)C)NC(=O)[C@@H](N)CC(=O)O [Example 10, α-L-Aspartyl-O-2,2,5,5-tetramethylcyclopentyl-L-serine methyl ester] | 1000 | 5% | 800 | 8% |  |  | Sweetness ratio (Compound:Sucrose) [1, 8]: 1200; Sucrose Equivalent [1, 8]: 3%
10 | COC(=O)[C@H](COC(C)(C)C)NC(=O)[C@@H](N)CC(=O)O [t-butyl, L-aspartyl-O-t-butyl-L-serine methyl ester, reference compound] (H-Asp-Ser(tBu)-OMe) |  |  |  |  |  |  | Sweetness ratio (Compound:Sucrose) [1, 6]: 120; Sucrose Equivalent [1, 6]: 6%; Sucrose Equivalent (Table 2, sweetness values of alkyl ethers) [2]: 140
11 | COC(=O)[C@H](CO[C@@]1(C)CCCC[C@H]1C)NC(=O)[C@@H](N)CC(=O)O (single isomer, unassigned) [Example 4 CIS ISOMER, L-aspartyl-O-(cis-1,2-dimethylcyclohexyl)-L-serine methyl ester] | 400 | 2.0% | 400 | 4.0% |  |  | Sucrose Equivalent ([1]; 0.005% concentration of compound, listed as Cis-1,2-dimethylcyclohexyl): 2%; Sucrose Equivalent ([1]; 0.01% concentration of compound, listed as Cis-1,2-dimethylcyclohexyl): 4%; Sweetness ratio (Compound:Sucrose) [1, 7]: 350; Sucrose Equivalent [1, 7]: 7.0%; Sucrose Equivalent ([1]; 0.02% concentration of compound, listed as Cis-1,2-dimethylcyclohexyl): 7%
12 | COC(=O)[C@H](COC1(C)CCCCCC1)NC(=O)[C@@H](N)CC(=O)O [Example 12, α-L-aspartyl-O-(1-methyl-cycloheptyl)-L-serine methyl ester] |  |  | 200 | 2% |  |  | Sweetness ratio (Compound:Sucrose) [1, 6]: 120; Sucrose Equivalent [1, 6]: 6%
13 | COC(=O)[C@H](CO[C@]1(C)CCCC[C@H]1C)NC(=O)[C@@H](N)CC(=O)O (single isomer, unassigned) [Example 4 TRANS ISOMER, L-aspartyl-O-(trans-1,2-dimethylcyclohexyl)-L-serine methyl ester] | 300 | 1.5% | 300 | 3.0% |  |  | Sucrose Equivalent ([1]; 0.01% concentration of compound, listed as trans-1,2-dimethylcyclohexyl): 3%; Sweetness ratio (Compound:Sucrose) [1, 7]: 250; Sucrose Equivalent [1, 7]: 5.0%; Sucrose Equivalent ([1]; 0.02% concentration of compound, listed as trans-1,2-dimethylcyclohexyl): 5%
14 | COC(=O)[C@H](COC1CCCC1)NC(=O)[C@@H](N)CC(=O)O [cyclopentyl, α-L-aspartyl-O-(cyclopentyl)-L-serine methyl ester] | 300 | 1.5% | 230 | 2.3% | 180 | 4.5% | 
15 | COC(=O)[C@H](COCCC1CC2CCC1C2)NC(=O)[C@@H](N)CC(=O)O (stereo partly drawn) [2-norbornylethyl, α-L-Aspartyl-O-2-norbornylethyl-L-serine methyl ester] |  |  |  |  |  |  | Sweetness ratio (Compound:Sucrose) [1, 9]: 105; Sucrose Equivalent [1, 9]: 4.2%
16 | CCOC(=O)[C@H](COC1(C)CCCC1)NC(=O)[C@@H](N)CC(=O)O [α-L-Aspartyl-O-(1-methylcyclopentyl)-L-serine ethyl ester] |  |  |  |  |  |  | sweetness equivalent ([1]; in vivo): 150 x sucrose
17 | CCC(C)(C)OC[C@H](NC(=O)[C@@H](N)CC(=O)O)C(=O)OC [tert. C5 H11, L-aspartyl-O-t-amyl-L-serine methyl ester] |  |  |  |  |  |  | Sucrose Equivalent (Table 2, sweetness values of alkyl ethers) [2]: 230
18 | COC(=O)[C@H](COC(C)(C)C1CC=C(C)CC1)NC(=O)[C@@H](N)CC(=O)O (stereo partly drawn) [Example 8C, α-L-aspartyl-O-[1,1-dimethyl-1-(4-methylcyclohex-3-enyl)methyl]-L-serine methyl ester] |  |  | 220 | 2.2% | 208 | 5.2% | 
19 | COC(=O)[C@H](COC1(C)CC=CCC1)NC(=O)[C@@H](N)CC(=O)O (stereo partly drawn) [Example 7, L-aspartyl-O-(1-methylcyclohex-3-enyl)-L-serine methyl ester] | 400 | 2% | 250 | 2.5% | 160 | 4% | 
20 | COC(=O)[C@H](COC(C)(C)C1CCC(C)CC1)NC(=O)[C@@H](N)CC(=O)O (stereo partly drawn) [Example 8D, α-L-aspartyl-O-[1,1-dimethyl-1-(4-methylcyclohexyl)methyl]-L-serine methyl ester] |  |  |  |  | 240 | 6% | Sucrose Equivalent (Sensory Evaluations, Example 8) ([1]; 0.01% concentration): 2.2; Sucrose Equivalent (Sensory Evaluations, Example 8) ([1]; 0.025% concentration): 5.2; Sweetness ratio (Compound:Sucrose) [1, 6]: 220; Sucrose Equivalent [1, 6]: 11%
21 | COC(=O)[C@H](COC1(C)CCCC1)NC(=O)[C@@H](N)CC(=O)O [I, L-aspartyl-O-(1-methylcyclopentyl)-L-serine methyl ester] | 500 | 2.5% | 500 | 5% | 400 | 10% | Sucrose Equivalent [1, 6]: 12%; temporal and sensory qualities ([1]; determined by the panel of experts): excellent temporal and sensory qualities
22 | COC(=O)[C@H](COC1CCCCC1)NC(=O)[C@@H](N)CC(=O)O [cyclohexyl, α-L-aspartyl-O-(cyclohexyl)-L-serine methyl ester] |  |  | 120 | 1.2% | 127 | 3.2% | 
